Assay [1] concerns MV4-11. In words: Antiproliferative activity against human MV4-11 cells assessed as reduction in cell viability measured after 48 hrs by CellTiter-Glo assay. To be noted: MV4-11, 48 h. Format: functional, cell-based. (Cellular ATP, detected with luciferase, serves as a proxy for viable cell number.)
A further assay deals with Kasumi 1. Put plainly: cells. Conditions: Homo sapiens, Kasumi 1, 72 h.
Assay [2] concerns MV4-11. In words: Antiproliferative activity against human MV4-11 cells assessed as reduction in cell growth. Format: functional, cell-based.
The test system of assay [3] is MV4-11. Put plainly: Antiproliferative activity against human MV4-11 cells assessed as reduction in cell growth incubated for 48 hrs by CCK-8 assay. The assay is classed as functional, cell-based. To be noted: MV4-11, 48 h. (In general: Formazan colour is commonly taken as a measure of viable cells.)
For assay [4], the system named is MV4-11. In words: Antiproliferative activity against human MV4-11 cells assessed as reduction in cell viability incubated for 48 hrs by MTS assay. The assay is classed as functional, cell-based. Conditions: MV4-11, 48 h.
In a further assay the test system is MOLM-13. Put plainly: Antiproliferative activity against human MOLM-13 cells assessed as reduction in cell viability incubated for 48 hrs by MTS assay. Format: functional, cell-based. Conditions: MOLM-13, 48 h.
Assay [5] concerns BaF3. Put plainly: Antiproliferative activity against mouse BaF3 cells expressing FLT3-ITD mutant incubated for 48 hrs by CCK8 assay. Format: functional, cell-based. Conditions: BaF3, 48 h.
The test system of assay [6] is BaF3. Put plainly: Antiproliferative activity against mouse BaF3 cells expressing FLT3-ITD F691L mutant incubated for 48 hrs by CCK8 assay. To be noted: BaF3, 48 h. Format: functional, cell-based.
Assay [7] relates to BaF3. Put plainly: Antiproliferative activity against mouse BaF3 cells expressing FLT3-ITD D835Y mutant incubated for 48 hrs by CCK8 assay. Format: functional, cell-based. To be noted: BaF3, 48 h.
In assay [8] the test system is MV4-11. In words: cells. Conditions: Homo sapiens.
Description: Antiproliferative activity against human MV4-11 cells assessed as reduction in cell viability by WAT-8 reagent based analysis

Description for Kasumi 1: Antiproliferative activity against human Kasumi 1 cells assessed as reduction in cell viability incubated for 72 hrs by Cell-titer glo luminescent assay

Consider `CC(C)(C)c1cc(NC(=O)Nc2ccc(-c3cn(CCCCc4cn(CCCCC(=O)Nc5cccc6c5CN(C5CCC(=O)NC5=O)C6=O)nn4)c4ncnc(N)c34)cc2)no1` (stereo not given), for which the half-inhibitory concentration (IC50) – broadly, the point on the concentration scale where inhibition reaches its midpoint – in the assay with MV4-11 [1] was determined as 4.83 nM.

As for `Cc1[nH]c(/C=C2\C(=O)Nc3ccc(F)cc32)c(C)c1C(=O)NCCCCCCNc1cccc2c1C(=O)N(C1CCC(=O)NC1=O)C2=O` (stereo not given), the EC50 – broadly, the concentration giving half of the maximal effect – in the assay with Kasumi 1 is 21.3 nM.

Take `O=C(CCCCCCC(=O)Nc1cc(-c2ccc3ncn(Cc4c(Cl)cccc4Cl)c3c2)[nH]n1)NO`: the IC50 in the assay on MV4-11 [2] worked out at 92 nM. On to `CCc1nc(C(N)=O)c(Nc2ccc(N3CCN(CN4CCN(c5ccc6c(c5)C(=O)N(C5CCC(=O)NC5=O)C6=O)CC4)CC3)c(OC)c2)nc1NC1CCOCC1` (stereo not given), for which the IC50 in the assay with MV4-11 [3] was found to be 1.66 nM.

Regarding `CCCNc1nc(Nc2ccc(C#N)cc2)ncc1C#CCCCNC(=O)[C@H](C)N(C)C(=O)/C=C/CN(C)C` [FF-10101], the IC50 with MV4-11 [4] stood at 1.1 nM; in the assay with MOLM-13 it was 0.83 nM; with BaF3 [5] it was 1.8 nM; in the assay with BaF3 [6], 14.5 nM; in the assay with BaF3 [7] it was 11.1 nM. As to `CCc1nc(C(N)=O)c(Nc2ccc(N3CCC(N4CCN(C)CC4)CC3)c(OC)c2)nc1NC1CCOCC1` [GILTERITINIB], it took 0.9 nM to reach half-maximal inhibition in the assay with MV4-11 [8] (IC50).
